The term IC50 denotes the midpoint of a concentration-inhibition curve. What is called half-life is the time in which the quantity being followed falls by half. Low readings indicate fast loss, high ones slow loss.

This is an account of results in patent US20230241071A1, “COMBINATION TREATMENT OF LIVER DISORDERS” (Terns Pharmaceuticals, Inc., priority 2021, published 2023).

The target of one data set is T1, THR-β (Homo sapiens, UniProt P10828).
T1 sequence (P10828 1-461): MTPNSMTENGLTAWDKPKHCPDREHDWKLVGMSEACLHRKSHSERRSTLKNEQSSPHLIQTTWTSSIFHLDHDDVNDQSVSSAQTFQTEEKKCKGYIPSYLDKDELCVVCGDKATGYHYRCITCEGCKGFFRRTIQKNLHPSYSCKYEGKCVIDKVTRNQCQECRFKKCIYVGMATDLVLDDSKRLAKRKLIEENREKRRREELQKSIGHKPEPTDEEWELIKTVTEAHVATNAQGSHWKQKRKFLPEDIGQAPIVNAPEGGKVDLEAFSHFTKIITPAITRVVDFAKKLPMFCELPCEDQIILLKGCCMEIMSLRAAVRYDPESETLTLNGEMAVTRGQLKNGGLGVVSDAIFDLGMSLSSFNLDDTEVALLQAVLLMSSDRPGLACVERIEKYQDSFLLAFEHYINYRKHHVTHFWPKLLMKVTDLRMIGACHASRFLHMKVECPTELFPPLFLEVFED
Briefly: Binding activity to the thyroxine receptor beta. As to conditions: for THR-α/-β selectivity: ratio of binding IC50; for IC50: read-out: IC50 THR-β binding force.

A short description of data set [1]: Pharmacokinetic evaluation in SD rats. The data set is classed as in vivo, rat. As to conditions: 2.0 mg/kg intragastric; for half-life: male, rat, plasma, po.
Method: Drug Preparation: a certain amount of the drug was taken and added into a 2% Klucel LF+0.1% Tween 80 aqueous solution, to prepare a clear solution or a uniform suspension.
Dosage: SD rats were fasted overnight and given the drug by intragastric infusion at an administrated dose of 2 mg/kg and an administrated volume of 10 mL/kg each.
Operation: rats were dosed by intragastric infusion with the compounds. […] The heparinized sample tubes were then stored at −20° C., and the rats were allowed to eat food 2 h after the dosage.
Determination of contents of the compounds to be tested in the plasma of rats after intragastric infusion of the drugs at different concentrations: the plasma samples were thawed at room temperature, 50 μL each was taken and added into 130 μL of an internal standard working solution (1000 ng/mL, acetonitrile, tolbutamide), and the mixture was whirled for about 1 min and then centrifugated at 4° C. and 13000 rpm for 10 min. 50 μL of the supernatant was taken and mixed with 100 μL of 50% acetonitrile water, and then introduced for LC/MS/MS analysis.

Consider `N#Cc1nn(-c2cc(Cl)c(Oc3n[nH]c(=O)c4c3CCCC4)c(Cl)c2)c(=O)[nH]c1=O` [Compound 3], for which, on THR-β, the THR-α/-β selectivity was more than 8.1 factor and the IC50 is 1230 nM.
For `CC1(C)CCc2c(Oc3c(Cl)cc(-n4cc(C#N)c(=O)[nH]c4=O)cc3Cl)n[nH]c(=O)c21` [Compound 6], in data set [1], the Curve area came to 9242 ± 1245 ng·h/mL, the Time to peak is 5.33 ± 1.15 h and the half-life is 5.14 ± 0.83 h.
As to `N#Cc1nn(-c2cc(Cl)c(Oc3n[nH]c(=O)c4c(Cl)cccc34)c(Cl)c2)c(=O)[nH]c1=O` [Compound 7], at THR-β, the THR-α/-β selectivity is recorded as more than 6.80 factor and the half-inhibitory concentration (IC50) was determined as 1470 nM.
As for `O=c1cnn(-c2cc(Cl)c(Oc3n[nH]c(=O)c4ccccc34)c(Cl)c2)c(=O)[nH]1` [Compound 11], the half-inhibitory concentration (IC50) at THR-β amounted to 262 nM.
As to `CC(C)c1cc(Oc2c(Cl)cc(-n3nc(C#N)c(=O)[nH]c3=O)cc2Cl)n[nH]c1=O` [Reference compound, 2-[3,5-Dichloro-4-(5-isopropyl-6-oxo-1,6-dihydropyridazin-3-yloxy)phenyl]-3,5-dioxo-2,3,4,5-tetrahydro[1,2,4]triazine-6-carbonitrile, reference compound], in data set [1], the Curve area amounted to 12854 ± 961 ng·h/mL, the “Peak blood drug concentration” value was found to be 1163 ± 97.1 ng/mL, the Time to peak was 5.3 ± 1.15 h and the half-life is 3.53 ± 0.42 h.
